According to ChEMBL document CHEMBL4196029, “New MD2 inhibitors derived from curcumin with improved anti-inflammatory activity” (Eur J Med Chem, 2018):
Calls of active or inactive are those of the source. The calls are words filed in the database; no cut-off is given here.

Key:
[1] = test system: Peritoneal macrophage; assay: Anti-inflammatory activity in C57BL/6 mouse primary peritoneal macrophages assessed as inhibition of LPS-induced TNFalpha secretion at 10 uM preincubated for 30 mins followed by LPS addition measured after 24 hrs by ELISA relative to control; format: functional; conditions: C57BL/6, Peritoneal macrophage
[2] = test system: Peritoneal macrophage; assay: Anti-inflammatory activity in C57BL/6 mouse primary peritoneal macrophages assessed as inhibition of LPS-induced IL-6 secretion at 2.5 uM preincubated for 30 mins followed by LPS addition measured after 24 hrs by ELISA relative to control; format: functional; conditions: C57BL/6, Peritoneal macrophage
[3] = test system: Peritoneal macrophage; assay: Anti-inflammatory activity in C57BL/6 mouse primary peritoneal macrophages assessed as inhibition of LPS-induced TNFalpha secretion at 5 uM preincubated for 30 mins followed by LPS addition measured after 24 hrs by ELISA relative to control; format: functional; conditions: C57BL/6, Peritoneal macrophage
[4] = test system: Rattus norvegicus; assay: Anti-inflammatory activity in Sprague-Dawley rat model of LPS-induced acute lung injury assessed as reduction in leukocytic extravasation in lungs by measuring number of cells in BALF at 20 mg/kg, po administered daily for 1 week followed by LPS addition at 30 mins post last dose measured after 6 hrs by Wright-Giemsa staining based light microscopic assay; format: functional, organism-based
[5] = test system: Rattus norvegicus; assay: Anti-inflammatory activity in Sprague-Dawley rat model of LPS-induced acute lung injury assessed as reduction in IL-6 mRNA level in lungs at 20 mg/kg, po administered daily for 1 week followed by LPS addition at 30 mins post last dose measured after 6 hrs by qRT-PCR method; format: functional, organism-based
[6] = target: Mitogen-activated protein kinase 1 (Homo sapiens) (UniProt P28482); assay: Inhibition of recombinant human full length N-terminal GST-tagged ERK2 (1 to 360 end residues) expressed in Escherichia coli at 1 uM after 1 hr by caliper mobility shift assay relative to control
Mitogen-activated protein kinase 1 (Homo sapiens), sequence (P28482 whole entry, the tested form may be a part): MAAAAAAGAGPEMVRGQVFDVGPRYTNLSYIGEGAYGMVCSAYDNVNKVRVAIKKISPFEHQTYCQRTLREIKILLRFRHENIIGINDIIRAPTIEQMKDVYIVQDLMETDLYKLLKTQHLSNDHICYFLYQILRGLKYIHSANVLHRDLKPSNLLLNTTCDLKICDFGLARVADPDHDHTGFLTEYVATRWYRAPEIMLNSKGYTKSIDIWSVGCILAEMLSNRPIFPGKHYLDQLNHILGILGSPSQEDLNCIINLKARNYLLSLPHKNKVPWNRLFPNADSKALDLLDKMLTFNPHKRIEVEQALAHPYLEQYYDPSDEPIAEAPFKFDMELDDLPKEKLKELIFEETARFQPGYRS

[7] = target: Interleukin-1 receptor-associated kinase 1 (Homo sapiens) (UniProt P51617); assay: Inhibition of recombinant human N-terminal GST-tagged IRAK1 (194 to 712 residues) expressed in baculovirus expression system at 10 uM after 1 hr by caliper mobility shift assay relative to control
Interleukin-1 receptor-associated kinase 1 (Homo sapiens), sequence (P51617 whole entry, looked up, the tested form may be a part): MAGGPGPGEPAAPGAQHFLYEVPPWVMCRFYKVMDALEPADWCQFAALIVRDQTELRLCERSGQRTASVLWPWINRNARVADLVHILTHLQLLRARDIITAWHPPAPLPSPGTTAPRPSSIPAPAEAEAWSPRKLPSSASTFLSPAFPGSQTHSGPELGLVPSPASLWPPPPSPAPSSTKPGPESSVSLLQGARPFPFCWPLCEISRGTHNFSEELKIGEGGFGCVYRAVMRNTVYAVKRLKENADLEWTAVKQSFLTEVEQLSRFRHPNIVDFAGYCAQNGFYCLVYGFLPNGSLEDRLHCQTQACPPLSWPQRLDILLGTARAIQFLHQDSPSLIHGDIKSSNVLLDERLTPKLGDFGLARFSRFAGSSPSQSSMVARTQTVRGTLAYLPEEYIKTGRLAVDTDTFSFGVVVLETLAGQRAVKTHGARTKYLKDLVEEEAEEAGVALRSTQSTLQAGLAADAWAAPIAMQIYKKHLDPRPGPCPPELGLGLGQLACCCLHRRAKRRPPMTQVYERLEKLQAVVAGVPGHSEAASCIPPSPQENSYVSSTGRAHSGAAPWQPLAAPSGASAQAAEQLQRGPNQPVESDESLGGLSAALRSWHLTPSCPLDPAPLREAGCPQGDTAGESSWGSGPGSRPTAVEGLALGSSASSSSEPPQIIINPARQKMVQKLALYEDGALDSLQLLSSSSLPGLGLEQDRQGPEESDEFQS

[8] = target: Interleukin-1 receptor-associated kinase 1 (Homo sapiens) (UniProt P51617); assay: Inhibition of recombinant human N-terminal GST-tagged IRAK1 (194 to 712 residues) expressed in baculovirus expression system at 0.1 uM after 1 hr by caliper mobility shift assay relative to control
[9] = target: T1, Inhibitor of nuclear factor kappa-B kinase subunit beta (Homo sapiens) (UniProt O14920); assay: Inhibition of recombinant human N-terminal His-tagged IKKbeta (1 to 662 residues) expressed in baculovirus expression system at 1 uM after 1 hr by caliper mobility shift assay relative to control
T1 sequence (whole entry): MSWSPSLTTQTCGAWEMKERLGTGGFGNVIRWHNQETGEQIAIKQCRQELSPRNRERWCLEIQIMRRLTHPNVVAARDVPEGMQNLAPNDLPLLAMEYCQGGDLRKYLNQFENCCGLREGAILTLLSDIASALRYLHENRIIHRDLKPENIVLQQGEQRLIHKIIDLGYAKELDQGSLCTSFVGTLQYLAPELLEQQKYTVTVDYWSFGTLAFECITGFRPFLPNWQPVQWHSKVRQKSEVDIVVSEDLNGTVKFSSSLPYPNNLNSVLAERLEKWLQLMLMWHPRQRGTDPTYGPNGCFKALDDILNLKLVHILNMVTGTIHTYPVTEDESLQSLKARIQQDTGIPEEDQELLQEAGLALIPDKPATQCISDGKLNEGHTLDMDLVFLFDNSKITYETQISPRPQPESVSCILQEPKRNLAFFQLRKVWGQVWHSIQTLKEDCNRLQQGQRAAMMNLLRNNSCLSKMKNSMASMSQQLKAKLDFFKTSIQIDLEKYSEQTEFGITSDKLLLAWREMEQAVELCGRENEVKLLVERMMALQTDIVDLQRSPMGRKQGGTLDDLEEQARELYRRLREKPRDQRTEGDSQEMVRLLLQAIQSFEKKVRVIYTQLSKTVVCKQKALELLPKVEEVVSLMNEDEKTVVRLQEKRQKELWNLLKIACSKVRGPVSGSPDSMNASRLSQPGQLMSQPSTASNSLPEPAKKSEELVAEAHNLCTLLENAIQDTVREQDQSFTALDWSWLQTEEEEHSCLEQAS

[10] = target: T1, Inhibitor of nuclear factor kappa-B kinase subunit beta (Homo sapiens); assay: Inhibition of recombinant human N-terminal His-tagged IKKbeta (1 to 662 residues) expressed in baculovirus expression system at 0.1 uM after 1 hr by caliper mobility shift assay relative to control
[11] = test system: Rattus norvegicus; assay: Anti-inflammatory activity in Sprague-Dawley rat model of LPS-induced acute lung injury assessed as reduction in IL-1beta mRNA level in lungs at 20 mg/kg, po administered daily for 1 week followed by LPS addition at 30 mins post last dose measured after 6 hrs by qRT-PCR method; format: functional, organism-based
[12] = test system: Rattus norvegicus; assay: Anti-inflammatory activity in Sprague-Dawley rat model of LPS-induced acute lung injury assessed as reduction in TNFalpha level in BALF at 20 mg/kg, po administered daily for 1 week followed by LPS addition at 30 mins post last dose measured after 6 hrs by ELISA; format: functional, organism-based
[13] = test system: Rattus norvegicus; assay: Anti-inflammatory activity in Sprague-Dawley rat model of LPS-induced acute lung injury assessed as reduction in TNFalpha level in serum at 20 mg/kg, po administered daily for 1 week followed by LPS addition at 30 mins post last dose measured after 6 hrs by ELISA; format: functional, organism-based
[14] = test system: Rattus norvegicus; assay: Anti-inflammatory activity in Sprague-Dawley rat model of LPS-induced acute lung injury assessed as reduction in ICAM1 mRNA level in lungs at 20 mg/kg, po administered daily for 1 week followed by LPS addition at 30 mins post last dose measured after 6 hrs by qRT-PCR method; format: functional, organism-based
[15] = test system: Rattus norvegicus; assay: Anti-inflammatory activity in Sprague-Dawley rat model of LPS-induced acute lung injury assessed as reduction in VCAM1 mRNA level in lungs at 20 mg/kg, po administered daily for 1 week followed by LPS addition at 30 mins post last dose measured after 6 hrs by qRT-PCR method; format: functional, organism-based

Row | Compound | inhibition at 10 µM [1] [%] | inhibition at 2.5 µM [2] [%] | inhibition at 5 µM [3] [%] | Activity [4] | Activity [5] | inhibition [6] [%] | inhibition [7] [%] | inhibition [8] [%] | inhibition [9] [%] | inhibition [10] [%] | Activity [11] | Activity [12] | Activity [13] | Activity [14] | Activity [15]
1 | COc1cc(/C=C2\COC/C(=C\c3cc(OC)c(OC)c(OC)c3)C2=O)cc(OC)c1OC | > 90 | > 50 | > 50 | Active | Active | 10.4 | 3.6 | 15.9 | 13.3 | 15.7 | – | – | – | – | –
2 | COc1cc(/C=C2\CN(C)C/C(=C\c3cc(OC)c(OC)c(OC)c3)C2=O)cc(OC)c1OC | > 90 | > 50 | > 50 | Active | Active | 13.3 | 0.5 | 7.7 | 6.3 | 21.1 | Active | Active | Active | Active | Active
